Measured values taken from US20170165253A1, “TREATMENT OF SEXUAL DYSFUNCTION AND FOR IMPROVED SEXUAL QUALITY OF LIFE” (ReJoy, priority 2015, published 2017).
Structures can show the parent of a compound that is named as a salt.

What was measured:
NAC = assay: Acetylcholine receptor agonists: nipple erection and sensitivity (Example 13); assay type: in vivo, human; settings: single topical dose to one NAC, one subject per agent; for Onset Time: 0.4-12.5 mg/cm^2
Experimental: A study was conducted to assess the effectiveness of different acetylcholine receptor agonists on eliciting nipple erection and increasing nipple sensitivity in normal women aged 18-65. Ten subjects were recruited. Each subject was randomly assigned a single agonist. Each subject self-administered a single dose of the agonist to one NAC that was self-reported as the least sensitive (or if no differential sensitivity, then the left NAC). The agonists were applied in topical solutions to the NAC. The subject was supervised by a medical professional. Blood pressure and heart rate were monitored at baseline, 5 minutes, 10 minutes, and 30 minutes. […] Subjects were asked to report if they experienced nipple erection and sensitivity in less than 10 minutes and if the effect lasted more or less than 10 minutes. The subjects all responded to the agonists. The effect was short-lived; however, sensitivity is some of the subjects was reported up 60 minutes later.

areola = assay: Dose study of nipple erection and sensitivity, topical oxymetazoline (Example 7); assay type: in vivo, human; settings: 0.5% topical solution
Experimental: Oxymetazoline HCl 0.1%, 0.2%, 0.5%. A study was conducted to assess the dosage of topical oxymetazoline solution required to elicit nipple erection and sensitivity. Five premenopausal subjects participated in the study. Subjects were not hypertensive, pregnant or breastfeeding. Three formulations were used: Formula A: 0.1% topical oxymetazoline hydrochloride solution; Formula B: 0.2% topical oxymetazoline hydrochloride solution; Formula C: 0.5% topical oxymetazoline hydrochloride solution.
The study was conducted over 3 days. On day 1, subjects were instructed to apply Formula A to both areolas. On day 2, subjects were instructed to apply Formula B to both areolas. On day 3, subjects were instructed to apply Formula C to both areolas. 0.1 mL of each formula was applied using a metered dosage dispenser to each areola. […] With the 0.5% topical oxymetazoline solution, response in nipple erection and sensitivity was obtained approximately within 1 hour and lasted over 8 hours.

**Q.** Which results are given for `CC(=O)OCC[N+](C)(C)C` [Acetylcholine]?
**A.** Nipple Sensitivity Effect Duration (NAC): <5 min; Onset Time (NAC): <10 min

**Q.** For `CN1[C@@H](CC(=O)c2ccccc2)CCC[C@H]1C[C@H](O)c1ccccc1` [Alpha-Lobeline], which “Nipple Erection (Yes/No)” value (NAC) is on record?
**A.** Yes

**Q.** What about the “Nipple Sensitivity (Yes/No)” value (NAC) of the same compound?
**A.** Yes

**Q.** And the “Nipple Sensitivity Effect Duration” value (NAC)?
**A.** <10 min

**Q.** What about the “Onset Time” value (NAC) of the same compound?
**A.** <10 min

**Q.** For `CC(C[N+](C)(C)C)OC(N)=O` (stereo not shown) [Bethanechol], which “Nipple Erection (Yes/No)” value (NAC) is on record?
**A.** Yes

**Q.** And the “Nipple Sensitivity (Yes/No)” value (NAC)?
**A.** Yes

**Q.** And the “Nipple Sensitivity Effect Duration” value (NAC)?
**A.** <10 min

**Q.** What about the “Onset Time” value (NAC) of the same compound?
**A.** <10 min

**Q.** Which results are given for `C[N+](C)(C)CCOC(N)=O` [Carbachol]?
**A.** Nipple Erection (Yes/No) (NAC): Yes; Nipple Sensitivity (Yes/No) (NAC): Yes; Nipple Sensitivity Effect Duration (NAC): <10 min; Onset Time (NAC): <10 min

**Q.** Which “Nipple Erection (Yes/No)” value (NAC) does the source give for `CC1OC2(CS1)CN1CCC2CC1` (stereo not shown) [Cevimeline] here?
**A.** Yes

**Q.** What about the “Nipple Sensitivity (Yes/No)” value (NAC) of the same compound?
**A.** Yes

**Q.** And the “Nipple Sensitivity Effect Duration” value (NAC)?
**A.** <10 min

**Q.** And the “Onset Time” value (NAC)?
**A.** <10 min

**Q.** Which results are given for `CC(=O)OC(C)C[N+](C)(C)C.[Cl-]` (stereo not shown) [Mecholyl]?
**A.** Nipple Erection (Yes/No) (NAC): Yes; Nipple Sensitivity (Yes/No) (NAC): Yes; Nipple Sensitivity Effect Duration (NAC): <10 min; Onset Time (NAC): <10 min

**Q.** How did the “Nipple Erection (Yes/No)” value (NAC) turn out when `CCN(CC)CCNC(=O)c1cc(Cl)c(N)cc1OC` [Metaclopramide] was run?
**A.** Yes

**Q.** And the “Nipple Sensitivity (Yes/No)” value (NAC)?
**A.** Yes

**Q.** What about the “Nipple Sensitivity Effect Duration” value (NAC) of the same compound?
**A.** <10 min

**Q.** And the “Onset Time” value (NAC)?
**A.** <10 min

**Q.** How did the “Nipple Erection (Yes/No)” value (NAC) turn out when `CC(=O)OC(C)C[N+](C)(C)C` (stereo not shown) [Methacholine] was run?
**A.** Yes

**Q.** And the “Nipple Sensitivity (Yes/No)” value (NAC)?
**A.** Yes

**Q.** And the “Nipple Sensitivity Effect Duration” value (NAC)?
**A.** <10 min

**Q.** What about the “Onset Time” value (NAC) of the same compound?
**A.** <10 min

**Q.** For `CN1CCCC1c1cccnc1` (stereo not shown) [Nicotine], which “Nipple Erection (Yes/No)” value (NAC) is on record?
**A.** Yes

**Q.** And the “Nipple Sensitivity (Yes/No)” value (NAC)?
**A.** Yes

**Q.** What about the “Nipple Sensitivity Effect Duration” value (NAC) of the same compound?
**A.** <10 min

**Q.** And the “Onset Time” value (NAC)?
**A.** <10 min

**Q.** `CC[C@@H]1C(=O)OC[C@@H]1Cc1cncn1C` [Pilocarpine] was tested. Which “Nipple Erection (Yes/No)” value (NAC) did it give?
**A.** Yes

**Q.** And the “Nipple Sensitivity (Yes/No)” value (NAC)?
**A.** Yes

**Q.** What about the “Nipple Sensitivity Effect Duration” value (NAC) of the same compound?
**A.** <5 min

**Q.** What about the “Onset Time” value (NAC) of the same compound?
**A.** <10 min

**Q.** For `Cc1cc(C(C)(C)C)c(O)c(C)c1CC1=NCCN1` [oxymetazoline, oxymetazoline hydrochloride], which duration of response (areola) is on record?
**A.** over 8 hours

**Q.** And the “time to response in nipple erection and sensitivity” value (areola)?
**A.** ≤ 1 h
